Earlier results, collected in patent US20230390221A1, “PHARMACEUTICAL COMPOSITIONS WITH LOW AMOUNTS OF NITROSAMINE IMPURITIES AND METHODS FOR PRODUCING THE SAME” (Zentiva K.S., priority 2020, published 2023).

Conditions: limit set by EMA or FDA

| Structure (SMILES) | acceptable daily limits [ng/day] |
| --- | --- |
| CCN(CC)N=O [NDEA, N-nitrosodiethylamine] | 26.5 |
| CN(C)N=O [NDMA, N-nitrosodimethylamine] | 96 |
